The source of these data is patent publication US8394783B2, “Polysaccharide gel formulation having multi-stage bioactive agent delivery” (Allergan, Inc., priority 2007, dated 2013).

SMILES strings stand for the structures.

Assay [1] has as its system Hyaluronidase. The experiment in a line: Enzymatic degradation study (Morgan-Elson colorimetric assay). It is filed as biochemical. The note with it: generally an order of magnitude less TA gives the same inhibition as CSA. The protocol: The HA filling gels prepared in Examples 1 and 2, were evaluated for resistance to enzymatic degradation using the Morgan-Elson colorimetric assay. This assay was applied to estimate the extend of enzymatic degradation by measuring changes in the molecular weight of the HA chains.
Hyaluronidase (0.1-10 mg) was added to each HA formulation, incubated for 10-250 mins at 37° C. followed by addition of 0.1 mL of a 0.8 M potassium tetraborate solution and heating at 100° C. for 10 min. The samples were supplemented with 3 mL of a 10% (wt) p-dimethylaminobenzaldehyde solution in acetic acid and incubated at 37° C. for 10-120 mins. The process was repeated for each HA formulation, omitting the enzyme addition, to prepare a control sample. The change in the optical density (OD) at 585 nm between the enzymatically degraded sample and the control sample was used to quantify the extent of degradation for each formulation.

Assay [2] has as its system Hyaluronidase. As to the kind of experiment: Enzymatic degradation study (SEC-MALS soluble HA assay). It is filed as biochemical. From the text:
The HA filling gels prepared in Examples 1 and 2, were further evaluated for resistance to enzymatic degradation by using a SEC-MALS (Size Exclusion Multi-Angle Light Scattering) based soluble HA assay. This assay was applied to quantify degradation by evaluating the soluble HA content in each sample (defined as the portion of the gel that can pass through a 0.2-1.0 μm filter). The difference in the soluble HA content, between an enzymatically degraded sample and a control sample was used to quantify the extent of degradation for each HA formulation.
The SEC-MALS tests were performed using an Agilent size exclusion chromatography system equipped with Wyatt light scattering and refractive index units. Hyaluronidase (0.1-10 mg) was added to each HA formulation, incubated for 10-250 mins at 37° C. followed by addition of 0.1 ml of a 0.8 M potassium tetraborate solution and heating at 100° C. for 10 mins. The samples were diluted in PBS, filtered through a 0.2-1.0 μm filter and injected into the SEC-MALS system. The process was repeated for each HA formulation, omitting the enzyme addition, to prepare a control sample. The soluble HA content of the enzymatically degraded sample, the control sample as well as the difference between the two is summarized in FIG. 3.
In general terms: SEC sorts molecules by how far they enter the pores of the column.

Regarding `O=C(OC[C@H]1O[C@@H](OC(=O)c2cc(O)c(O)c(OC(=O)c3cc(O)c(O)c(O)c3)c2)[C@H](OC(=O)c2cc(O)c(O)c(OC(=O)c3cc(O)c(O)c(O)c3)c2)[C@@H](OC(=O)c2cc(O)c(O)c(OC(=O)c3cc(O)c(O)c(O)c3)c2)[C@@H]1OC(=O)c1cc(O)c(O)c(OC(=O)c2cc(O)c(O)c(O)c2)c1)c1cc(O)c(O)c(OC(=O)c2cc(O)c(O)c(O)c2)c1` [TA, tannic acid], the “inhibitory activity of TA compared with CSA” value in the assay with Hyaluronidase [1] is listed as “higher inhibitory activity than CSA”; in the assay on Hyaluronidase [2], “significantly higher than that of CSA”.
